Entries after “also recorded” stand apart in the source; their conditions may differ.
B1: beta chain: beta chain of naturally processed Amb a 1, N-terminal part, 138 amino acids (protein)
chain: AEGVGEILPSVNETRSLQACEAYNIIDKCWRGKADWENNRQALADCAQGFAKGTYGGKWGDVYTVTSNLDDDVANPKEGTLRFAAAQNRPLWIIFKNDMVINLNQELVVNSDKTIDGRGVKVEIINGGLTLMNVKNIIIHNINIHDVKVLPGGMIKSNDGP
modifications: Amb a 1 beta chain
notes: beta chain of naturally processed Amb a 1, N-terminal part, 138 amino acids

Assays:
[1] = tested on: Amb a 1-specific T cell lines (TCL); assay: T cell epitope mapping of Amb a 1.3: proliferation (3H-thymidine uptake) of TCL stimulated with synthetic peptides; format: cell-based, human; settings: for No. positive patients SI > 3 / No. positive patients SI > 5 / % (positive patients SI > 3) / % (positive patients SI > 5): TCL from 48 ragweed pollen-allergic patients, peptide 5 μg/ml; for No. positive patients SI > 3 / No. positive patients SI > 5: 3H-thymidine uptake after 48 hrs; for No. positive patients SI > 3 / % (positive patients SI > 3): stimulation index > 3; for No. positive patients SI > 5 / % (positive patients SI > 5): stimulation index > 5; for T cell activating region recognized by % of patients: classes of prevalence referring to SI>5, 48 TCL
In short: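 Amb a 1-specific TCL from ragweed-allergic patients, raised with ragweed extract or rAmb a 1.3, stimulated 48 h with 121 overlapping 12-mer peptides plus one C-terminal 13-mer (9-residue overlap) at 5 μg/ml. Proliferation by 3H-thymidine uptake; SI against the mean cpm of the ten least stimulating peptides, epitope when SI ≥3.0.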

[2] = tested on: IgE of sera from ragweed pollen allergic patients; assay: SDS-PAGE IgE immunoblot with patients' sera; format: binding, human
Method: Membrane strips were incubated with sera from ragweed pollen allergic patients (lanes 1-29) or with serum from a non-allergic donor (lane C). Bound IgE was detected with ^125I-labeled goat anti-human IgE. Ragweed pollen-sensitized patients were recruited in Austria (lanes 1-13) or in Italy (lanes 14-29).
The proteins were analyzed via SDS-PAGE using 15% acrylamide gels and 0.1% Coomassie staining with a molecular weight standard RPN 756 (GE Healthcare Life Sciences). Sera from allergic patients were tested for positive IgE-reactivity. rAmb a 1 and rArt v 6 were separated on 15% (w/w) polyacrylamide gels and electroblotted onto a PVDF membrane. After blocking the non-specific protein binding sites with Blocking buffer (per L: 7.5 g Na2HPO4, 1 g NaH2PO4, 5 g BSA and 5 mL Tween 20), the membrane was incubated with patients' sera (diluted 1:10 in Blocking buffer) for more than 6 hours at room temperature. The membrane was washed for at least 30 minutes with Blocking buffer before it was incubated with radiolabeled [^125 I]-anti human IgE (RAST, 5 µCi, MedPro) diluted in Blocking buffer (1:40) overnight at room temperature. After a second 30-minute wash, the membrane was placed onto an imaging plate. The screen was exposed for at least 24 hours and developed using a PhosphoImager Bas-1800 II scanner for detection and the instrument's supporting software (Fujifilm).
nAmb a 1 undergoes spontaneously proteolysis during purification and it is cleaved into two chains, alpha and beta chain, respectively.

Molecule | No. positive patients SI > 3 [1] | No. positive patients SI > 5 [1] | % (positive patients SI > 3) [1] | % (positive patients SI > 5) [1] | reactivity with T cells isolated from allergic individuals [1] | T cell reactivity with samples from individuals suffering from ragweed pollen allergy [1] | T cell activating region recognized by % of patients [1] | IgE reactivity of the Amb a 1 chains [2] | % of patients whose IgE recognized the chain ([2]; chains of nAmb a 1, sera from Italy, Canada and Austria (FIG. 9))
TDNVDQRMPRCR (Amb a 1 fragment) [Peptide 82] | 3 | 2 | 6.3% | 4.2% |  |  |  |  | 
TGTGAAESMAWN (Amb a 1 fragment) [Peptide 102] | 9 | 6 | 18.8% | 12.5% | reactivity with T cells |  |  |  | 
TIDGRGVKVEII (Amb a 1 fragment) [Peptide 39] | 19 | 16 | 39.6% | 33.3% | reactivity with T cells |  |  |  | 
TQQSKAILLGAD (Amb a 1 fragment) [Peptide 72] | 4 | 2 | 8.3% | 4.2% |  |  |  |  | 
TSGSDPVLTPVQ (Amb a 1 fragment) [Peptide 111] | 16 | 11 | 33.3% | 22.9% | reactivity with T cells |  |  |  | 
TSNLDDDVANPK (Amb a 1 fragment) [Peptide 23] | 2 | 1 | 4.2% | 2.1% |  |  |  |  | 
TYAIGGSSAPTI (Amb a 1 fragment) [Peptide 91] | 13 | 11 | 27.1% | 22.9% | reactivity with T cells | high T cell reactivity | recognized by 22.9% |  | 
TYGGKWGDVYTV (Amb a 1 fragment) [Peptide 19] | 2 | 0 | 4.2% | 0.0% |  |  |  |  | 
VAFNMFTDNVDQ (Amb a 1 fragment) [Peptide 80] | 10 | 6 | 20.8% | 12.5% | reactivity with T cells |  |  |  | 
VAFNMFTDNVDQRMP (Amb a 1 fragment) [Peptide 80-81] |  |  |  |  | reactivity with T cells |  | recognized by 12.5% |  | 
VDQRMPRCRFGF (Amb a 1 fragment) [Peptide 83] | 10 | 8 | 20.8% | 16.7% | reactivity with T cells |  | recognized by 16.7% |  | 
VKVEIINGGLTL (Amb a 1 fragment) [Peptide 41] | 5 | 1 | 10.4% | 2.1% | reactivity with T cells |  |  |  | 
VKVLPGGMIKSN (Amb a 1 fragment) [Peptide 50] | 5 | 4 | 10.4% | 8.3% | reactivity with T cells |  |  |  | 
VLTPVQSAGMIP (Amb a 1 fragment) [Peptide 113] | 4 | 1 | 8.3% | 2.1% |  |  |  |  | 
VNNNYDRWGTYA (Amb a 1 fragment) [Peptide 88] | 10 | 4 | 20.8% | 8.3% | reactivity with T cells |  |  |  | 
VNNNYDRWGTYAIGG (Amb a 1 fragment) [Peptide 88-89] |  |  |  |  | reactivity with T cells |  | recognized by 12.5% |  | 
VQDKGMLATVAF (Amb a 1 fragment) [Peptide 77] | 7 | 4 | 14.6% | 8.3% | reactivity with T cells |  |  |  | 
VTLGSTHVTISN (Amb a 1 fragment) [Peptide 67] | 6 | 2 | 12.5% | 4.2% | reactivity with T cells |  |  |  | 
VVNSDKTIDGRG (Amb a 1 fragment) [Peptide 37] | 14 | 9 | 29.2% | 18.8% | reactivity with T cells |  |  |  | 
WENNRQALADCA (Amb a 1 fragment) [Peptide 13] | 2 | 0 | 4.2% | 0.0% |  |  |  |  | 
WRGKADWENNRQ (Amb a 1 fragment) [Peptide 11] | 4 | 2 | 8.3% | 4.2% |  |  |  |  | 
WRSDKDLLENGA (Amb a 1 fragment) [Peptide 106] | 3 | 1 | 6.3% | 2.1% |  |  |  |  | 
YTVTSNLDDDVA (Amb a 1 fragment) [Peptide 22] | 4 | 4 | 8.3% | 8.3% |  |  |  |  | 
B1 |  |  |  |  |  |  |  | strongly recognized; also recorded: contains most of the IgE epitopes of Amb a 1 | 90%
